Data reported in US11974983B2 (Duke University, priority 2018, dated 2024).

Columns and labels:
[1] = Cmax in blood at doses used in prior clinical trials; format: in vivo; conditions: dose 1 mg; read-out: Converted (M) Cmax
Description: See Maximov et al., Current Clinical Pharmacology 8(2): 135-155 (2013). […] See Assessment Report for Fablyn, 2009 (EMA). […] See Gardner et al., J Clin Pharmacol 46(1): 52-58 (2006).

MCF7 Y537S = assay: Mammary intraductal (MIND) xenograft model, MCF7 Y537S; format: in vivo, NSG mice
Procedure: (§1) MCF7 cells were engineered with CRISPR/Cas9 to express ERα with Y537S and D538G mutations. To mimic the natural environment of infiltrating ductal ERα^+ breast cancers, NSG™ mice were injected, via the nipple in the inguinal mammary glands, with three MCF7 cell variants: wild type MCF7 cells (MCF7 WT), MCF7 cells expressing Y537S mutant ERα (MCF7 Y537S), and MCF7 cells expressing D538G mutant ERα (MCF7 D538G), respectively. Prior to injection, the MCF7 cells were labeled with a luciferase reporter to monitor tumor growth in vivo using a Xenogen IVIS imager. […] FIG. 4 summarizes the experimental design.

MCF7 D538G = assay: Mammary intraductal (MIND) xenograft model, MCF7 D538G; format: in vivo, NSG mice
Procedure: as §1

ERα Y537S mutant LBD = target: T1, ERα Y537S mutant LBD (Homo sapiens, UniProt P03372, C381S/C417S/C530S/Y537S); assay: X-ray crystal structure of ligand-bound ERα Y537S mutant LBD
T1 construct: 6x-His-TEV (N, cleaved yes); made in house; host or cells: E. coli BL21(DE3)
T1 sequence (P03372 311-547 C381S/C417S/C530S/Y537S limits assumed): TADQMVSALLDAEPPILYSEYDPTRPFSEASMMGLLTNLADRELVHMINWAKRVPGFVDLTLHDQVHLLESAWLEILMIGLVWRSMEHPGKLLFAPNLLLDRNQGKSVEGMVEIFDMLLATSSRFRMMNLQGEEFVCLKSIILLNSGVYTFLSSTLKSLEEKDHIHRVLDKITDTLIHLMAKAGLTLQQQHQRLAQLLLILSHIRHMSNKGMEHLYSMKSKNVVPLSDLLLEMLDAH
Procedure: 6x-His-TEV-Estrogen receptor alpha ligand binding domain containing C381S, C417S, C530S with L536S or Y537S mutations were expressed in E. coli BL21(DE3). The L536S mutant stabilizes the wild-type antagonist conformation and Y537S is an activating somatic mutation that has been identified in patients with acquired hormone resistance. Both proteins were purified using Ni-NTA resin, the 6x-His tag was cleaved using tev protease, removed using Ni-NTA resin, and a final purification was performed by passing the protein over a size exclusion column. The main peak was concentrated to 10 mg/mL and flash frozen.
Hanging drop vapor diffusion was used to crystallize the complexes. The L536S-Laso (lasofoxifene-bound ERα wild-type LBD) complex formed clear hexagonal crystals in 25% PEG 8,000, 200 mM MgCl2, HEPES pH 7.5 after two weeks at room temperature. The Y537S-Laso (lasofoxifene-bound ERα Y537S mutant LBD) complex formed rectangular crystals in 20% PEG 3.35K, 200 mM MgCl2, HEPES pH 6.5 after one week at room temperature.
Crystals were cryo-protected in 25% glycerol in mother liquor and flash frozen in liquid nitrogen. All x-ray crystallographic data sets were collected at the Advanced Photon Source. The L536S-Laso complex diffracted to 1.8 Å and the Y537S-Laso complex diffracted to 2.1 Å by cc^1/2 over 50%. Phaser was used for molecular replacement with 5UFX as the model. […]

[2] = tested on: ER+ HER2− advanced or metastatic breast cancer; assay: Phase 2 clinical study, lasofoxifene versus fulvestrant; format: in vivo, postmenopausal women; conditions: 5 mg once daily oral
Procedure: The design of the study is outlined in FIG. 26. The study is an open label, randomized, multicenter study. Full recruitment into study occurs within twelve to sixteen months, with another twelve months of follow up before the primary outcome measure is analyzed. Screening tests are performed within thirty days of enrollment. Subjects are treated until documented disease progression.
As a comparison, fulvestrant is given to the breast cancer patient at 500 mg by intramuscular injection on day 1, day 15, and day 29, and then once every month.
The inclusion criteria include: • 1. Postmenopausal women with: a. locally advanced or metastatic breast cancer with either measurable or non-measurable lesions, b. progression on an AI in combination with a CDK 4/6 inhibitor for advanced breast cancer; • 2. If possible, a biopsy of metastatic breast cancer tissue will be obtained to confirm ER^+ and HER2^− disease; • 3. At least one or more of the following ESR1 mutations: Y537S, Y537N, Y537C, D538G, L536, E380Q, or S463P assessed from […] in blood; • 4. Received one chemotherapy regimen in the neo-adjuvant or adjuvant setting prior to entry into the trial; • 5. ECOG performance score of 0 or 1.

[3] = MCF7 Y537S, 5 mg/kg and 10 mg/kg, after 70 days

SMILES: Oc1ccc2c(c1)CC[C@H](c1ccccc1)[C@@H]2c1ccc(OCCN2CCCC2)cc1 [Lasofoxifene, lasofoxifene]
- Cmax [1]: 1.55e-08 M
- tumor growth monitored by total flux (MCF7 Y537S; MCF7 Y537S mice, 10 mg/kg five times per week subcutaneous): most significantly inhibited
- liver metastasis, compared to fulvestrant (MCF7 Y537S; [3]): significantly more effective in reducing liver metastasis
- tumor weight, compared to fulvestrant (MCF7 Y537S; [3]): significantly more effective
- tumor growth measured by tumor weight, compared to vehicle control (MCF7 Y537S; MCF7 Y537S, 10 mg/kg, after 70 days of treatment): significantly inhibited
- tumor growth measured by tumor weight (MCF7 Y537S; MCF7 Y537S, all tested doses (1, 5, 10 mg/kg), after 70 days): significantly inhibited the growth of tumors at all tested doses
- lung metastasis (MCF7 Y537S; MCF7 Y537S, lasofoxifene 5 mg/kg and 10 mg/kg, after 70 days): significantly reduce lung metastasis
- tumor growth monitored by total flux (MCF7 D538G; MCF7 D538G mice, 10 mg/kg five times per week subcutaneous): most significantly inhibited
- tumor weight, compared to fulvestrant (MCF7 D538G; MCF7 D538G, 5 mg/kg and 10 mg/kg, after 70 days): significantly more effective
- tumor growth measured by tumor weight, compared to vehicle control (MCF7 D538G; MCF7 D538G, 10 mg/kg, after 70 days of treatment): significantly inhibited
- liver metastasis (MCF7 D538G; MCF7 D538G, all tested doses (1, 5, 10 mg/kg), after 70 days): effective in reducing liver metastasis at all tested doses
- loop between helix 11 and helix 12 in the crystal structure (ERα Y537S mutant LBD): absent
- median PFS compared to fulvestrant ([2]; D538G mutant patient population): increases the median PFS
- median PFS compared to fulvestrant ([2]; E380Q mutant patient population): increases the median PFS
- median PFS compared to fulvestrant ([2]; ESR1 mutation population): increases the median PFS
- median PFS compared to fulvestrant ([2]; L536 mutant patient population): increases the median PFS
- median PFS compared to fulvestrant ([2]; S463P mutant patient population): increases the median PFS
- median PFS compared to fulvestrant ([2]; Y537C mutant patient population): increases the median PFS
- median PFS compared to fulvestrant ([2]; Y537N mutant patient population): increases the median PFS
- median PFS compared to fulvestrant ([2]; Y537S mutant patient population): increases the median PFS
